Where two headings read alike, the source gives them in different places.
Key:
[1] = in vivo; cited from earlier work

## CC/C(=C(\c1ccccc1)c1ccc(OCCNC)cc1)c1ccccc1 [demethyltamoxifen]
[1]
  t1/2: 11 days

## CC/C(=C(\c1ccccc1)c1ccc(OCCN(C)C)cc1)c1ccccc1 [Tamoxifen]
[1]
  t1/2: 8 days

## Cc1nc2n(c(=O)c1CCN1CCC(c3noc4cc(F)ccc34)CC1)CCCC2 [risperidone, Risperidone]
Genotype of CYP2D6*10
  Concentration of risperidone in blood plasma: influence of genotype: significantly varied
Participants with mutant type, 48 hours after dosing
  Concentration of risperidone in blood plasma: capable of being measured
Participants with only wild type, 24 hours after dosing
  Concentration of risperidone in blood plasma: reduced below a measurable level
Wild type participants compared to heterozygous or mutant type (FIG. 7-9)
  Concentration of risperidone in blood plasma: considerably low

## CCN(CC)CCCC(C)Nc1ccnc2cc(Cl)ccc12 (stereo not shown) [Chloroquine]
[1]
  t1/2: 41 days

From patent US20100261219A1, “TEST METHOD OF BIOAVAILABILITY AND BIOEQUIVALENCE FOR XENOBIOTICS USING GENETIC PROFILING” (priority 2008, published 2010)
